Measurements as given in patent EP4385495A1, “NANOSYSTEMS FOR THE ENCAPSULATION OF THERAPEUTIC AGENTS” (National Technical University of Athens, priority 2022, dated 2024).

Tested on: experimental animal model of osteoarthritis (OA)
Assay: von Frey mechanical allodynia test in osteoarthritis rat model
Assay type: in vivo, Wistar rats
Conditions: for Paw Withdrawal Threshold (%): right paw/(right paw + left paw)*100
Procedure: Healthy adult male Wistar rats (150-200 g) were used for the study, with water and food ad libitum, at a constant temperature of 22°C and controlled lighting (12 h light/12 h dark cycle). […] As far as the dispersion procedure of the injectables is concerned, all the natural compounds were dissolved in saline solution, whereas the studied nanoparticles were mechanically grinded in a mortar and pestle set with saline solution and Tween 20 (2% w/v) and heated at 36 °C before each treatment. There were six treatments administered every 10 days. At the end of the experiment rats were euthanized and both knees were collected for histological analysis. Rats were anesthetized with chloral hydrate. The right knee joints of Group I were injected with normal saline solution and served as a control. Animals from the groups II, III, IV, V, VI, VII were injected with collagenase type II (Clostridium histolyticum). Collagenase (125 collagen digestion unit/mg) was dissolved in saline, and it was injected intra-articularly into the right knee joint twice on days 1 and 4 of the experiment ([…] and S. Fakurazi. Collagenase and sodium iodoacetate-induced experimental osteoarthritis model in Sprague dawley rats. Asian J. Sci. Res. 2: 1-13, 2009). The left knees of all animals were left untreated as a control. For the evaluation of the effectiveness and time of release of the encapsulated compounds, all animals were subjected to a series of behavioral testing in addition to the measurements of body weight and knees diameter change. The experimental protocol of the present study followed the combination of three different behavioral tests, which are von Frey mechanical allodynia test, grid walking and slope walking test. Behavioral tests are performed in three phases, at the beginning before the start of treatment, in the middle of treatment (approximately 35-40 days) and at the end (after the 70th day). Mechanical allodynia was tested by the von Frey method which detects pain threshold as the paw withdrawal response. For the testing, rats were placed into plastic chambers that allow access to the plantar surface of the hind paws. […] In Table 15 below, the nociceptive threshold is defined as: nociceptive threshold (%) = ([…])/((nociceptive; threshold on right paw + nociceptive threshold of left paw))*100 [formula] Table 13: von Frey-paw withdrawal threshold (g)

In the case of C[C@@H]1O[C@@H](O[C@H]2[C@H](Oc3cc(O)c4c(c3)O[C@H](c3ccc(O)cc3)CC4=O)O[C@H](CO)[C@@H](O)[C@@H]2O)[C@H](O)[C@H](O)[C@H]1O [S1 [NAR], Naringin], the “von Frey-paw withdrawal threshold” value (11 days (before treatment)) is reported as 63 g, the “von Frey-paw withdrawal threshold” value (40 days (half of experimental protocol), 10 mg/kg (S1, ibuprofen i.p.; nanoparticles i.a.)) is reported as 81,12 g and the “von Frey-paw withdrawal threshold” value (70 days (end of experimental protocol), 10 mg/kg (S1, ibuprofen i.p.; nanoparticles i.a.)) is reported as 83,96 g. The “von Frey-paw withdrawal threshold” value (left-control paw) was 88,68 g, the “paw withdrawal thresholds after commencement of treatment (in words)” value (rat, in vivo) was “presented an increase” and the “Paw Withdrawal Threshold (%)” value (11 days (before treatment)) was 41,53%. The “Paw Withdrawal Threshold (%)” value (40 days (half of experimental protocol)) was 45,55% and the “Paw Withdrawal Threshold (%)” value (70 days (end of experimental protocol)) was 45,95%.
